One assay relates to NCI-H929. The assay is described as follows: cells. As for the experimental part:
For cell survival assays, cells were plated in 96-well culture plates (BD Biosciences, San Jose, Calif.), 100,000 cells/well with 200 μl, of culture media. The effect of the drugs on cell survival was assessed, for example, by measuring 3-(4,5-dimethylthiazol-2-yl)-5-(3-carboxymethoxyphenyl)-2-(4-sulphophenyl)-2H-tetrazolium, inner salt (MTS) (Promega, Madison, Wis.) dye absorbance of viable cells by adding 40 μL of 5 mg/mL MTS to each well for the last 4 hours of drug exposure. Additional wells containing cells only (untreated control) or medium only (background medium control) were used as controls. Absorbance at 490 nm (A490) was measured using a spectrophotometer (Dynatech Laboratories, Chantilly, Va.). Viability was estimated according to the following formula: […]
Briefly, the cellular fraction affected (Fa) was calculated based on an MTS assay after exposing cells to the drugs alone or in combination at a given dose compared to untreated cells, using the formula: Fa=100−% Viable Cells. Fa values were entered into Calcusyn software (Biosoft, Ferguson, Mo. and Cambridge, United Kingdom) to obtain CI values. CI values <1.0 indicated a synergistic effect of the drugs used in combination. For Inhibitory Concentration, or IC, calculations, dose-effect curves for MAL3-101, MG-132, 17-AAG, and their combinations were used to interpolate the median inhibitory concentration that caused 30% (IC30), 50% (IC50), and 70% (IC70) reductions in the % viable cells compared to untreated cells.
Cells (1×10^5) were plated in 96-well microtiter plates (Costar, Cambridge, Mass.) in 100 μL, of growth medium and exposed for indicated periods to various concentrations of compounds or their combinations. Control cells were cultured in DMSO. All studies were performed in triplicate and repeated at least three times independently. Survival was measured by an MTS assay (Promega, Madison, Wis.) as per the manufacturer's directions. The absorbance (A450) ratio of treated to untreated cells, after the subtraction of background absorbance, was multiplied by 100 to obtain percent cell survival. Cell death was measured by trypan blue dye exclusion in identically plated cultures.
DMSO-treated cultures were compared to drug-treated cultures by Student's t tests or by Dunnett's post-hoc test following significant repeated-measures one-way analysis of variance. All tests were two-tailed, and statistical significance was set at P≦0.05. Isobologram analysis was performed to derive combination index (CI) values based upon the Chou-Talalay method using CalcuSyn software (Biosoft, Ferguson, Mo. and Cambridge, United Kingdom) as described in L. Catley, E. Weisberg, T. Kiziltepe, Y. T. Tai, T. Hideshima, P. Neri, P. Tassone, P. Atadja, D. Chauhan, N. C. Munshi, K. C. Anderson, Aggresome induction by proteasome inhibitor Bortezomib and {alpha}-tubulin hyperacetylation by tubulin deacetylase (TDAC) inhibitor LBH589 are synergistic in myeloma cells, Blood (2006), which is incorporated herein by reference.

The next assay concerns XBP-1 mRNA splicing. The assay is described as follows: RT-PCR analysis of XBP-1 mRNA splicing (UPR) in NCI-H929. It counts as cell-based, human. As for the experimental part: (§1) Total RNA was prepared from NCI-H929 and HEK293 cells using TRIzol reagent (Invitrogen, Carlsbad, Calif.) following exposure to MAL3-101, MG-132, and 17-AAG alone and in combination at the indicated time points. Tunicamycin was used at varying concentrations.
(§2) Total RNAs were used for the first-strand synthesis with the Superscript reverse transcriptase (Invitrogen, Carlsbad, Calif.). PCR primers (5′-[…]-3′ [Seq. ID No. 1] and 5′-[…]-3′ [Seq. ID No. 2]) encompassing the missing sequences in XPB-1s were used for the PCR amplification with AmpliTaq Gold polymerase (Applied Biosystem, Foster City, Calif.) with a probe set spanning the spliced-out region. PCR products were separated by electrophoresis on a 3% agarose gel (Agarose-1000, Invitrogen) and visualized them by ethidium bromide staining to assess the degree of X-box binding protein-1 unspliced (XBP-1u, ˜280 bp) and spliced (XBP-1s, ˜265 bp) mRNA.
Unspliced (XBP-1u, 285 bp) and spliced (XBP-1s, 259 bp) XBP-1 mRNA levels of treated NCI-H929 were determined by PCR amplification of total RNA that was reverse transcribed by SuperScript Reverse Transcriptase (Invitrogen, Carlsbad, Calif.). PCR primers (5′-[…]-3′ [Seq. ID No. 1] and 5′-[…]-3′ [Seq. ID No. 2]), which flank the 26-nt intron of XBP1 mRNA, were used for PCR amplification with Ex Taq polymerase (Takara Bio, Shiga, Japan).

The next assay deals with BiP. The experiment in a line: Levels of ER lumenal chaperone BiP in NCI-H929. It counts as cell-based, human. The note with it: NCI-H929, data not shown.
A further assay concerns Hsp70. The assay is described as follows: Hsp70 modulation.
In another assay the test system is XBP-1 splicing. The assay is described as follows: RT-PCR analysis of XBP-1 splicing in HEK293. It counts as cell-based. The settings on record: HEK293, 6 hours. As for the experimental part: as §1, §2

Three compounds from patent US8754094B2, “Methods for heat shock protein dependent cancer treatment” (The Research Foundation of State University of New York, priority 2007, dated 2014) can be followed below.

Entries after “also recorded” stand apart in the source; their conditions may differ. Read-outs that look alike come from different tables or passages of the source.

Usually IC50 stands for the point on the concentration scale where inhibition reaches its midpoint. Take `C=CCNC1=C2C[C@@H](C)C[C@H](OC)[C@H](O)[C@@H](C)/C=C(\C)[C@H](OC(N)=O)[C@@H](OC)/C=C\C=C(/C)C(=O)NC(=CC1=O)C2=O` [17-AAG, 17-allylamino-17-demethoxygeldanamycin]: the IC50 in the assay with NCI-H929 (read-out: IC50 (reduction of % viable cells), single agent, NCI-H929, 40 h exposure, MTS assay, agent alone) was 0.4 µM; in the assay on NCI-H929 (read-out: IC50 of 17-AAG in combination with 5 μM MAL3-101, NCI-H929, MTS, plus 5 μM MAL3-101), 0.3 µM; with NCI-H929 (read-out: IC50 of 17-AAG in combination with 10 μM MAL3-101, NCI-H929, 40 h, MTS, plus 10 μM MAL3-101) it was 0.03 µM. Also, in the assay with XBP-1 mRNA splicing (NCI-H929, early time points (4 h), concentrations that gave synergistic cytotoxicity), the “XBP-1 mRNA splicing at early time points” value is recorded as “no XBP-1 mRNA splicing was observed”. The “levels of BiP” value in the assay on BiP was “did not change”.
`CC(C)(C)NC(=O)C(c1ccc(I)cc1)N(CCN1CCOCC1)C(=O)CCCNC(=O)c1ccccc1` (stereo not drawn) [MAL3-51]: in the assay on NCI-H929 (NCI-H929, 10 or 20 μM, 40 h, MTS), the “response of percent viability” value is on record as “no response”. In the assay on Hsp70, the “potency as Hsp70 modulator relative to MAL3-101” value is recorded as “less potent Hsp70 antagonist than MAL3-101; also recorded: substantially less potent Hsp70 modulator”.
On to tunicamycin [reference compound], for which the “XBP-1 mRNA splicing, positive control” value in the assay on XBP-1 mRNA splicing (NCI-H929, 5 μg/ml, 4 h) is “induced XBP-1 mRNA splicing”. Besides, the “XBP-1 splicing in HEK293” value in the assay with XBP-1 splicing is “Stronger XBP-1 splicing was observed”.
